Assay results as given in patent US6610297B1, “Peptide immunogens for vaccination against and treatment of allergy” (Novartis AG, priority 1996, dated 2003).
Where no end group is shown, it is not given here.

Legend:
human IgM = human IgM (Homo sapiens, UniProt P01871); experiment: Isotype specificity ELISA of sera of immunized rabbits: IgM; format: in vivo; settings: FIG. 12; serum 1:50
Procedure: The isotype specificity of the anti-human IgE immune response in the immunized rabbits is monitored by ELISA: microtiter plate wells are each coated with 3 μg of human IgE (SUS-11), IgA, IgG, and IgM, respectively, and incubated with 100 μl of serum samples, diluted 1:50 with ELISA incubation buffer. Rabbit antibodies bound by the immobilized human antibodies are detected by incubation with goat garIgG-HRP. The measured OD405 values are corrected by the read-out obtained with 1:50 diluted pre-immune serum of each corresponding rabbit, diluted 1:50. The data given in FIG. 12 represents mean values of duplicate measurements.

BSW17 [1] = experiment: Recognition of phage-displayed peptides by BSW17 (phage display library screening); format: binding; design: key: + + +: +(++), +/− = intensity of recognition by BSW 17; +(++), +/− = intensity of recognition by BSW 17; +(++), +/− = intensity of recognition by BSW 17; + /−: +(++), +/− = intensity of recognition by BSW 17; settings: phage-displayed circular peptides, group A
Procedure: Bacteriophage particles specifically recognized by BSW17 are identified by biopanning of phage libraries displaying linear or circular random peptides from 6 to 15 amino acid residues in length fused to phage peptides pIII and pVIII, respectively. For amplification of phage libraries, 2 ml of a liquid culture of E. coli XL-I blue grown in SB medium to OD600=1.0 are incubated with 10^10 phages for 15 minutes at room temperature. 10 ml of SB medium containing […] of tetracycline and 20 μg/ml of carbenicillin are added and 10 μl, 1 μl and 0.1 μl, respectively, are plated on LB plates containing 100 μg/ml of carbenicillin. The culture is incubated at 37° with vigorous shaking for one hour, then 100 ml of SB containing 10 μg/ml of tetracycline and 50 μg/ml of carbenicillin are added and incubation is continued for one hour. 10^12 cfu of VCS M13 helper phage are added. After 2 hours with vigorous shaking at 37°. kanamycin is added to a final concentration of 70 μg/ml and incubation continued overnight. After centrifugation at 4000 g and 4° for 20 minutes, supernatants are mixed with 38 ml of an ice-cold sterile filtered solution of 12% NaCl and 16% PEG 8000, cooled on ice for 30 minutes and centrifuged for 30 minutes at 10000 g at 4°. The phage pellet is solubilized in 2 ml of TBS containing 1.5% casein and stored at 4°. For biopanning, COSTAR® RIA plates (Costar 3690) are coated over-night at 4° with 20 μg/ml of BSW17 in 0.1 M carbonate buffer, pH 9.6, and thereafter blocked with TBS containing 1.5% casein. 2×10^11 cfu of phages are added and incubated at 37° for 2 hours, then washed ten times with PBS/0.1% Tween 20. The wells are rinsed with water and the bound phages eluted with a total of 200 μl of 0.1 M HCl, pH 2.2 for 10 minutes. Eluted phages are neutralized with 2 M Tris base and amplified as described above.
For the selection of positive clones 50 μl of a E. coli XL-I blue liquid culture grown in SB-medium to OD600=1.0 are incubated with 1 μl of a 10^−8 dilution of amplified phages after the 3rd round of panning for 15 minutes at room temperature, then plated on LB plates containing 100 μg/ml of carbenicillin and grown overnight. Colonies are randomly picked and plated on LB plates containing 100 μg/ml of carbenicillin. After 4 hours at 37°, nitrocellulose filters soaked with 10 mM of IPTG are put on top and incubation continued overnight at 32°. Filters are removed and incubated at 37° for 30 minutes in a CHCl3-atmosphere. […]
The nucleotide sequence of the DNA encoding these peptides was determined. […]

BSW17 [2] = experiment: ELISA: recognition of coated mimotope conjugates by BSW17; format: binding; settings: FIGS. 8a, 8b, 9a, 9b
Procedure: Microtiter plate wells are coated with 1 μg each of SDS236, SDS237 or free KLH and incubated with increasing concentrations of BSW17. Bound antibody is detected with goat anti-mouse IgG-HRP (gamIgG-HRP). The data shown represents means of duplicates minus background binding to uncoated (BSA-blocked) wells.
FIG. 8b summarizes ELISA data obtained with various BSW17 mimotope conjugates coupled to the carrier protein using several chemical coupling procedures. Microtiter plate wells are coated with 5 μg each of the mimotope conjugates, or free KLH, and incubated with 10 μg of BSW17. Bound antibody is detected with gamIgG-HRP. The data shown represents means of duplicates minus background binding to uncoated (BSA-blocked) wells. In contrast to free KLH, each BSW17 mimotope conjugate is found to be recognized by BSW17.
In FIGS. 9a and 9b it is shown that BSW17 mimotopes coupled to KLH or BSA are specifically recognized by BSW17 and not by the non-related monoclonal antibodies 3G9 (anti-human Cε3) and 5H5/F8 (anti-human RIα). Again, microtiter plate wells are coated with 5 μg each of the mimotope conjugates shown and incubated with 10 μg of the corresponding monoclonal antibody. Bound antibody is detected with gamIgG-HRP. The data shown represents means of duplicates minus background binding to uncoated (BSA-blocked) wells.

BSW17 [3] = experiment: ELISA: binding of mimotope-displaying phage particles to coated BSW17; settings: FIG. 5; phage titer 10^9 cfu/ml; 10 μg coated antibody
Procedure: (§1) 10 μg of BSW17 and various monoclonal antibodies are coated to the wells of COSTAR® plates following standard ELISA procedures. After blocking with BSA, the wells are incubated with 100 μl of standard ELISA incubation buffer containing bacteriophage particles obtained from phage-infected bacterial culture supernatants with a phage titer of 10^9 cfu/ml. After washing, the plates are incubated with 5 μg of horseradish peroxidase (HRP)-coupled anti-M13 antiserum (Pharmacia, Uppsala, Sweden) in incubation buffer. All incubations are carried out at room temperature for 1 hour. After final washing, phage particles bound to the coated antibodies are visualized via the bound HRP-anti M13 serum by chromogenic substrate development following standard ELISA procedure. […] As negative non-antibody control, recombinant FcεRI α-chain and as positive control, wells coated with polyclonal anti-M13 antiserum are included.

[4] = tested on: 8E7, 3G9, 5H10 (monoclonal anti-Cε3 antibodies) and 5H5/F8 (against human FcεRIα); experiment: ELISA: binding of mimotope-displaying phage particles to other coated monoclonal antibodies; settings: FIG. 5; phage titer 10^9 cfu/ml; 10 μg coated antibody
Procedure: as §1

BSW17/IgE binding = experiment: Competition RIA: binding of 125I-labelled IgE to BSW17 in the presence of phage particles; design: species or system human; settings: FIG. 6; for Inhibition of labelled IgE binding to BSW17, equal to non-labelled IgE concentration: 10^11 cfu/ml of phage particles, estimated from standard inhibition curve
Procedure: Bacterial cells are grown in SB containing 10 μg/ml of tetracycline and 50 μg/ml of carbenicillin to OD600=0.4, then VCS M13 helper phage is added and incubation continued for 2 hours at 37°. Then kanamycin is added to a final concentration of 70 μg/ml and incubation continued overnight. Phage particles are precipitated with polyethyleneglycol. Soft RIA plates are coated with 20 μg/ml of BSW17 in 0.1 M carbonate buffer pH 9.6 and then blocked with TBS containing 1.5% casein. Human IgE is ^125I-labelled by the chloramine-T method and 100000 cpm per well are used for binding to BSW17 coated to the RIA plates in the presence of increasing concentrations of non-labelled IgE (standard curve) or phage particles, respectively. All experiments are performed at room temperature and plates are washed 3 times with 0.9% NaCl+0.05% Tween 20, cut in pieces and each well was measured in a γ-counter for 1 minute.
Closed circles show a standard inhibition curve by unlabelled IgE to allow an estimation of inhibition of labeled IgE binding in the presence of 10^11 cfu/ml of phage particles. The inhibition achieved with the phage clones is equal to non-labelled IgE concentrations of 1 μg/ml and 1.7 μg/ml, respectively.

human IgE = experiment: Anti-IgE response in rabbits immunized with BSW17 mimotope displaying phage (dot ELISA of serum); format: in vivo; settings: rabbit serum 1:200 after third boost
human IgE, sequence (P01854 1-428 isoform P01854-1): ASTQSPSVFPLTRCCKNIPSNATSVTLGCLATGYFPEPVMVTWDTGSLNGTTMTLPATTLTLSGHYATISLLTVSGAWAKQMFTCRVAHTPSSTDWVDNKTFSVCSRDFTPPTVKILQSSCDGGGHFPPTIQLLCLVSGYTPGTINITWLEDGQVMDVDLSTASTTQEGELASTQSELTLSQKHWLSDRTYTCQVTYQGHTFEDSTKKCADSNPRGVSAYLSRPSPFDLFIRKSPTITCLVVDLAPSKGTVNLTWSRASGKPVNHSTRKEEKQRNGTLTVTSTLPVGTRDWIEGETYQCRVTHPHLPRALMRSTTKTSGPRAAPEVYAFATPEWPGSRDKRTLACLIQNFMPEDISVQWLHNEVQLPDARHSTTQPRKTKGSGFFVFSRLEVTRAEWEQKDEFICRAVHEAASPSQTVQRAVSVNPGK
Procedure: To test the feasibility of a BSW17 mimotope-based vaccine approach, rabbits are immunized with phage particles displaying BSW17 mimotope peptides and helper phage VCS M13 as control, respectively. 10^12 cfu of freshly prepared phage particles are dialyzed against PBS at 4°. 1 ml is emulsified with complete Freund's adjuvant for the first immunization, or with 1 ml incomplete Freund's adjuvant for boosting. Immunization is repeated subcutaneously every 14 days. After the third boost, 12 ml of blood are taken, clotted for 4 hours at room temperature in glass vials and centrifuged for 10 minutes at 2000 g. The supernatants are tested for the presence of anti-human IgE antibodies by ELISA. Human IgE from three different individuals (SUS11-IgE; PS-IgE; WT-IgE) is diluted in PBS at a concentration of 50 μg/ml and 1 μl aliquots are dotted onto nitrocellulose. Nitrocellulose is blocked in TBS containing 1.5% casein for 1 hour. Rabbit serum is diluted 1:200 in TBS containing 1.5% casein and incubated overnight. Washing is performed in TBS, TBS-0.05% Tween 20 and TBS for 10 minutes each. Developing goat anti-rabbit-HRP is 1:1.000 diluted in TBS containing 1.5% casein and incubated for 4 hours. Washing and staining is performed as described. […] However, in addition to a massive immune response to the bacteriophage pVIII coat protein, sera of rabbits immunized with BSW17 mimotope phages also contain strongly elevated levels of antibodies which specifically recognize human IgE: […]

BSW17/IgE interaction = experiment: Competition ELISA: inhibition of BSW17-HRP/IgE interaction by sera of immunized rabbits; format: in vivo, human; settings: rabbit serum 1:50, BSW17-HRP 1:50000
BSW17/IgE interaction, sequence (P01854 1-428 isoform P01854-1): as above
Procedure: After washing, mAb BSW17 labeled with horseradish peroxidase (BSW17-HRP) is added in a 1:50000 dilution in TBS containing 1.5% casein for 4 hours. Subsequent washing and staining is performed as described.

human IgE (human) = human IgE (human) (UniProt P01854); experiment: cell-based or functional assay
human IgE (human), sequence (P01854 other isoform, or with tags, fused parts or gaps): as the sequence (P01854 1-428 isoform P01854-1) above

human IgM, sequence (P01871 1-433 limits assumed): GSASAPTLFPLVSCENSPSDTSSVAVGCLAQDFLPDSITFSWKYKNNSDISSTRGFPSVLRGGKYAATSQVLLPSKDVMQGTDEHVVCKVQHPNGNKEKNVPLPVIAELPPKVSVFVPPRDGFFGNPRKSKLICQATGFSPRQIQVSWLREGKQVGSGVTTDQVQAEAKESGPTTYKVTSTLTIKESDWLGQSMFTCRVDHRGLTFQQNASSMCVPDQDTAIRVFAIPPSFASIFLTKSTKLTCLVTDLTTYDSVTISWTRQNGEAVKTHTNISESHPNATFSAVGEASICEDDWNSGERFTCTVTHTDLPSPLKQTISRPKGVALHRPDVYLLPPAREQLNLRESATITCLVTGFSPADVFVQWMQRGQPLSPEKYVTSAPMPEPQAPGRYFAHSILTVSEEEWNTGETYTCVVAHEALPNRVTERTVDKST
human IgM, sequence (P01591 23-159 partner): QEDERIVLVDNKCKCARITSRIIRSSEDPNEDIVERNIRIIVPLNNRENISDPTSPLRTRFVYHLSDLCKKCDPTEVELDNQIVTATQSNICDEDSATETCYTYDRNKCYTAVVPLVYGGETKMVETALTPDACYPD

cyclic GEFCRRHNYGFWVCGDPA-KLH [SDS214]
Recognition of human IgM by serum of immunized rabbit (human IgM): partial recognition of human IgM

Cys Thr Leu Ser Val Phe Gly Tyr Trp Val Cys (CTLSVFGYWVC; cysteine pairing not given here; also: circular) [Seq.id.no. 21]
intensity of recognition by BSW 17 (BSW17 [1]): + /−

CTRLHTGYWVC (cysteine pairing not given here) [Seq.id.no. 20]
intensity of recognition by BSW 17 (BSW17 [1]): +

linear KTKGSGFFVF-KLH [SDS237]
Recognition of conjugate by BSW17 (BSW17 [2]): recognized by BSW17 in a dose-dependent manner

CINHRGYWVC (cysteine pairing not given here) [PhBSW.29-8]
intensity of recognition by BSW 17 (BSW17 [1]): + + +
Binding of phage particles to BSW17 (BSW17 [3]): very specifically bind to BSW17
Binding of phage particles to other antibodies (8E7, 3G9, 5H10, 5H5/F8) [4]: to no other antibodies
Inhibition of the binding of BSW17 to IgE (in words) (BSW17/IgE binding): inhibit the binding of BSW17 to IgE
Inhibition of labelled IgE binding to BSW17, equal to non-labelled IgE concentration (BSW17/IgE binding): 1.7 µg/mL
Recognition of IgE (relative OD) PS-IgE (human IgE): 9.0 ± 0.4 relative OD
Recognition of IgE (relative OD) SUS11-IgE (human IgE): 16.5 ± 0.7 relative OD
Recognition of IgE (relative OD) WT-IgE (human IgE): 25.0 ± 1.0 relative OD
Recognition of different IgE (% inhibition) PS-IgE (BSW17/IgE interaction): 48%
Recognition of different IgE (% inhibition) SUS11-IgE (BSW17/IgE interaction): 52%
Recognition of different IgE (% inhibition) WT-IgE (BSW17/IgE interaction): 65%
Recognition of different IgE (% inhibition) Zavasal-IgE (BSW17/IgE interaction): 47%

monoclonal antibody BSW17
Specific histamine release (%), A: during sensitization with IgE and BSW17; Experiment 1 (human IgE (human)): 3.6%
Specific histamine release (%), A: during sensitization with IgE and BSW17; Experiment 2 (human IgE (human)): 3%
Specific histamine release (%), A: during sensitization with IgE and BSW17; Experiment 3 (human IgE (human)): 4.4%
Specific histamine release (%), B: after triggering with Le27; cells sensitized with IgE and BSW17; Experiment 1 (human IgE (human)): 3.1%
Specific histamine release (%), B: after triggering with Le27; cells sensitized with IgE and BSW17; Experiment 2 (human IgE (human)): 1.5%
Specific histamine release (%), B: after triggering with Le27; cells sensitized with IgE and BSW17; Experiment 3 (human IgE (human)): 0.9%

keyhole limpet hemocyanin [KLH]
Recognition of conjugate by BSW17 (BSW17 [2]): no binding

cyclic GEFCINHRGYWVCGDPA-KLH [SDS236]
Recognition of conjugate by BSW17 (BSW17 [2]): recognized by BSW17 in a dose-dependent manner

CRRHNYGFWVC (cysteine pairing not given here) [PhBSW.6-9]
intensity of recognition by BSW 17 (BSW17 [1]): ++
Binding of phage particles to BSW17 (BSW17 [3]): very specifically bind to BSW17
Binding of phage particles to other antibodies (8E7, 3G9, 5H10, 5H5/F8) [4]: to no other antibodies
Inhibition of the binding of BSW17 to IgE (in words) (BSW17/IgE binding): inhibit the binding of BSW17 to IgE
Inhibition of labelled IgE binding to BSW17, equal to non-labelled IgE concentration (BSW17/IgE binding): 1 µg/mL
Recognition of IgE (relative OD) PS-IgE (human IgE): 8.0 ± 0.6 relative OD
Recognition of IgE (relative OD) SUS11-IgE (human IgE): 5.0 ± 0.2 relative OD
Recognition of IgE (relative OD) WT-IgE (human IgE): 21.0 ± 1.0 relative OD
Recognition of different IgE (% inhibition) PS-IgE (BSW17/IgE interaction): 63%
Recognition of different IgE (% inhibition) SUS11-IgE (BSW17/IgE interaction): 34%
Recognition of different IgE (% inhibition) WT-IgE (BSW17/IgE interaction): 65%
Recognition of different IgE (% inhibition) Zavasal-IgE (BSW17/IgE interaction): 51%
